Target: T1, mAChR M4 (UniProt P08173)
T1 construct: hM1 and hM4 cDNAs were purchased from Missouri S&T cDNA Resource
T1 sequence (P08173 1-479): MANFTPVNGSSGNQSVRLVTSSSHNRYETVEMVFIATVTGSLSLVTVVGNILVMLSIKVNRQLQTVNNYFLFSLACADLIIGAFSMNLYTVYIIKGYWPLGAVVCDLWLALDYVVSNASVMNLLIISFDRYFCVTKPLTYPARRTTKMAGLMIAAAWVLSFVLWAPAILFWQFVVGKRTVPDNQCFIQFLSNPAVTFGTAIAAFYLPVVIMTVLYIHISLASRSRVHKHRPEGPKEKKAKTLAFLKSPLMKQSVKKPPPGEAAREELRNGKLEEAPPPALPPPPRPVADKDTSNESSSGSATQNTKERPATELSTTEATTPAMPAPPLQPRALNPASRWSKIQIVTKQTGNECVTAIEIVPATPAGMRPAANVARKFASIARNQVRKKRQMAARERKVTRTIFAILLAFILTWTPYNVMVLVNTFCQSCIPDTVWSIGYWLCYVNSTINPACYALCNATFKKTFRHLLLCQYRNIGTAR
Assay: mAChR M4 cell-based functional assay (calcium mobilization, Fluo-4, FDSS)
Settings: for Emax (%)*: % ACh maximum at 30 μM; for pEC50: positive allosteric modulator activity, EC20 acetylcholine response; for pEC50 / EC50: CHO-K1 cells; for EC50: positive allosteric modulator activity: concentration-dependent increase in the EC20 acetylcholine response, >10 μM estimated for low potency (no plateau)
In short: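 Compound responses (11-point, 1:3 series) were followed as calcium fluorescence ratio on FDSS in Gqi5-coupled M4 CHO-K1 cells (human or rat) loaded with Fluo-4. Acetylcholine followed at EC20 (144 s) then EC80 (230 s). EC50/Emax from four-parameter logistic fits of direct, EC20-potentiating or EC80-inhibiting effects.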

Structure (SMILES): Cc1cc(C)c2c(n1)sc1c(NCc3cc(C#N)ccc3F)nn(C)c12 [Compound 91, 4-fluoro-3-(((1,6,8-trimethyl-1H-pyrazolo[3′,4′:4,5]thieno[2,3-b]pyridin-3-yl)amino)methyl)benzonitrile]
- Emax (%)*: 57%
- pEC50: 6.66
- EC50: 220 nM

Structure (SMILES): Cc1cc(C)c2c(n1)sc1c(NCc3[nH]cnc3C)nn(C)c12 [Compound 92, 1,6,8-trimethyl-N-((4-methyl-1H-imidazol-5-yl)methyl)-1H-pyrazolo[3′,4′:4,5]thieno[2,3-b]pyridin-3-amine]
- Emax (%)*: 50%
- pEC50: 6.37
- EC50: 430 nM

Structure (SMILES): Cc1cc(C)c2c(n1)sc1c(NCc3scnc3C)nn(C)c12 [Compound 93, 1,6,8-trimethyl-N-((4-methylthiazol-5-yl)methyl)-1H-pyrazolo[3′,4′:4,5]thieno[2,3-b]pyridin-3-amine]
- Emax (%)*: 53%
- pEC50: 7.42
- EC50: 38 nM

Structure (SMILES): Cc1cc(C)c2c(n1)sc1c(NCc3ccc(S(C)(=O)=O)c(F)c3)nn(C)c12 [Compound 94, N-(3-fluoro-4-(methylsulfonyl)benzyl)-1,6,8-trimethyl-1H-pyrazolo[3′,4′:4,5]thieno[2,3-b]pyridin-3-amine]
- Emax (%)*: 74%
- pEC50: 7.09
- EC50: 81 nM

Structure (SMILES): Cc1cc(C)c2c(n1)sc1c(NCc3ccco3)nn(CCO)c12 [Compound 95, 2-(3-((furan-2-ylmethyl)amino)-6,8-dimethyl-1H-pyrazolo[3′,4′:4,5]thieno[2,3-b]pyridin-1-yl)ethanol]
- Emax (%)*: 67%
- pEC50: 6.92
- EC50: 120 nM

Structure (SMILES): Cc1cc(C)c2c(n1)sc1c(N)nn(CCO)c12 [Compound 96, 2-(3-amino-6,8-dimethyl-1H-pyrazolo[3′,4′:4,5]thieno[2,3-b]pyridin-1-yl)ethanol]
- Emax (%)*: 37%
- pEC50: 5.27
- EC50: 5400 nM

Structure (SMILES): Cc1cc(C)c2c(n1)sc1c(NCc3cc(C)on3)nn(C)c12 [Compound 97, 1,6,8-trimethyl-N-((5-methylisoxazol-3-yl)methyl)-1H-pyrazolo[3′,4′:4,5]thieno[2,3-b]pyridin-3-amine]
- Emax (%)*: 59%
- pEC50: 5.43
- EC50: 3700 nM

Structure (SMILES): Cc1csc(CNc2nn(C)c3c2sc2nc(C)cc(C)c23)n1 [Compound 98, 1,6,8-trimethyl-N-((4-methylthiazol-2-yl)methyl)-1H-pyrazolo[3′,4′:4,5]thieno[2,3-b]pyridin-3-amine]
- Emax (%)*: 53%
- pEC50: 6.28
- EC50: 520 nM

Structure (SMILES): Cc1cc(C)c2c(n1)sc1c(NCc3sc(C)nc3C)nn(C)c12 [Compound 99, N-((2,4-dimethylthiazol-5-yl)methyl)-1,6,8-trimethyl-1H-pyrazolo[3′,4′:4,5]thieno[2,3-b]pyridin-3-amine]
- Emax (%)*: 66%
- pEC50: 7.03
- EC50: 93 nM

Structure (SMILES): Cc1cc(C)c2c(n1)sc1c(NCc3nccs3)nn(C)c12 [Compound 100, 1,6,8-trimethyl-N-(thiazol-2-ylmethyl)-1H-pyrazolo[3′,4′:4,5]thieno[2,3-b]pyridin-3-amine]
- Emax (%)*: 47%
- pEC50: 6.37
- EC50: 430 nM

Structure (SMILES): Cc1cc(C)c2c(n1)sc1c(NCc3cccs3)nn(CCO)c12 [Compound 101, 2-(6,8-dimethyl-3-((thiophen-2-ylmethyl)amino)-1H-pyrazolo[3′,4′:4,5]thieno[2,3-b]pyridin-1-yl)ethanol]
- Emax (%)*: 73%
- pEC50: 7.31
- EC50: 49 nM

Structure (SMILES): Cc1cc(C)c2c(n1)sc1c(NC3CNC3)nn(C)c12 [Compound 102, N-(azetidin-3-yl)-1,6,8-trimethyl-1H-pyrazolo[3′,4′:4,5]thieno[2,3-b]pyridin-3-amine]
- Emax (%)*: 69%
- pEC50: 5.96
- EC50: 1100 nM

Structure (SMILES): Cc1cc(C)c2c(n1)sc1c(NC3CCOC3)nn(C)c12 (stereo not drawn) [Compound 103, 1,6,8-trimethyl-N-(tetrahydrofuran-3-yl)-1H-pyrazolo[3′,4′:4,5]thieno[2,3-b]pyridin-3-amine]
- Emax (%)*: 67%
- pEC50: 6.62
- EC50: 240 nM

Structure (SMILES): Cc1cc(C)c2c(n1)sc1c(NCC(C)(C)C)nn(C)c12 [Compound 104, 1,6,8-trimethyl-N-neopentyl-1H-pyrazolo[3′,4′:4,5]thieno[2,3-b]pyridin-3-amine]
- Emax (%)*: 61%
- pEC50: 6.00
- EC50: 1000 nM

Structure (SMILES): Cc1cc(C)c2c(n1)sc1c(NC3CCN(C)C3)nn(C)c12 (stereo not drawn) [Compound 105, ,6,8-trimethyl-N-(1-methylpyrrolidin-3-yl)-1H-pyrazolo[3′,4′:4,5]thieno[2,3-b]pyridin-3-amine]
- Emax (%)*: 35%
- pEC50: <5.00
- EC50: > 10000 nM

Structure (SMILES): Cc1cc(C)c2c(n1)sc1c(NC3CN(C(=O)OC(C)(C)C)C3)nn(C)c12 [Compound 106, tert-butyl 3-((1,6,8-trimethyl-1H-pyrazolo[3′,4′:4,5]thieno[2,3-b]pyridin-3-yl)amino)azetidine-1-carboxylate]
- Emax (%)*: 73%
- pEC50: 7.57
- EC50: 27 nM

Structure (SMILES): Cc1cc(C)c2c(n1)sc1c(NC3CCCC3)nn(CCO)c12 [Compound 107, 2-(3-(cyclopentylamino)-6,8-dimethyl-1H-pyrazolo[3′,4′:4,5]thieno[2,3-b]pyridin-1-yl)ethanol]
- Emax (%)*: 65%
- pEC50: 6.70
- EC50: 200 nM

Structure (SMILES): Cc1cc(C)c2c(n1)sc1c(NC3CCOC3)nn(CCO)c12 (stereo not drawn) [Compound 108, 2-(6,8-dimethyl-3-((tetrahydrofuran-3-yl)amino)-1H-pyrazolo[3′,4′:4,5]thieno[2,3-b]pyridin-1-yl)ethanol]
- Emax (%)*: 69%
- pEC50: 6.09
- EC50: 820 nM

Structure (SMILES): Cc1cc(C)c2c(n1)sc1c(NC3CCSC3)nn(CCO)c12 (stereo not drawn) [Compound 109, 2-(6,8-dimethyl-3-((tetrahydrothiophen-3-yl)amino)-1H-pyrazolo[3′,4′:4,5]thieno[2,3-b]pyridin-1-yl)ethanol]
- Emax (%)*: 68%
- pEC50: 6.70
- EC50: 200 nM

Structure (SMILES): Cc1cc(C)c2c(n1)sc1c(NCc3scnc3C)nn(CCO)c12 [Compound 110, 2-(6,8-dimethyl-3-(((4-methylthiazol-5-yl)methyl)amino)-1H-pyrazolo[3′,4′:4,5]thieno[2,3-b]pyridin-1-yl)ethanol]
- Emax (%)*: 72%
- pEC50: 7.08
- EC50: 84 nM

Structure (SMILES): CCOC(=O)CNc1n[nH]c2c1sc1nc(C)cc(C)c12 [Compound 111, ethyl 2-((6,8-dimethyl-1H-pyrazolo[3′,4′:4,5]thieno[2,3-b]pyridin-3-yl)amino)acetate]
- Emax (%)*: 50%
- pEC50: <5.00
- EC50: > 10000 nM

Structure (SMILES): Cc1cc(C)c2c(n1)sc1c(NC(C)C)nn(CCO)c12 [Compound 112, 2-(3-(isopropylamino)-6,8-dimethyl-1H-pyrazolo[3′,4′:4,5]thieno[2,3-b]pyridin-1-yl)ethanol]
- Emax (%)*: 71%
- pEC50: 5.68
- EC50: 2100 nM

Structure (SMILES): Cc1cc(C)c2c(n1)sc1c(NC3CCCSC3)nn(CCO)c12 (stereo not drawn) [Compound 113, 2-(6,8-dimethyl-3-((tetrahydro-2H-thiopyran-3-yl)amino)-1H-pyrazolo[3′,4′:4,5]thieno[2,3-b]pyridin-1-yl)ethanol]
- Emax (%)*: 62%
- pEC50: 6.37
- EC50: 430 nM

Structure (SMILES): Cc1cc(C)c2c(n1)sc1c(NC3CCSCC3)nn(CCO)c12 [Compound 114, 2-(6,8-dimethyl-3-((tetrahydro-2H-thiopyran-4-yl)amino)-1H-pyrazolo[3′,4′:4,5]thieno[2,3-b]pyridin-1-yl)ethanol]
- Emax (%)*: 70%
- pEC50: 6.43
- EC50: 370 nM

Structure (SMILES): Cc1cc(C)c2c(n1)sc1c(NC3CCOCC3)nn(CCO)c12 [Compound 115, 2-(6,8-dimethyl-3-((tetrahydro-2H-pyran-4-yl)amino)-1H-pyrazolo[3′,4′:4,5]thieno[2,3-b]pyridin-1-yl)ethanol]
- Emax (%)*: 69%
- pEC50: 5.72
- EC50: 1900 nM

Structure (SMILES): Cc1cc(C)c2c(n1)sc1c(NCc3ccc(S(C)(=O)=O)cc3)nn(CCO)c12 [Compound 116, 2-(6,8-dimethyl-3-((4-(methylsulfonyl)benzyl)amino)-1H-pyrazolo[3′,4′:4,5]thieno[2,3-b]pyridin-1-yl)ethanol]
- Emax (%)*: 73%
- pEC50: 7.24
- EC50: 57 nM

Structure (SMILES): COC(=O)Cn1nc(NCc2ccc(S(C)(=O)=O)cc2)c2sc3nc(C)cc(C)c3c21 [Compound 117, methyl 2-(6,8-dimethyl-3-((4-(methylsulfonyl)benzyl)amino)-1H-pyrazolo[3′,4′:4,5]thieno[2,3-b]pyridin-1-yl)acetate]
- Emax (%)*: 40%
- pEC50: <5.00
- EC50: > 10000 nM

Structure (SMILES): COCCn1nc(NCc2ccc(OC)cc2)c2sc3nc(C)cc(C)c3c21 [Compound 118, N-(4-methoxybenzyl)-1-(2-methoxyethyl)-6,8-dimethyl-1H-pyrazolo[3′,4′:4,5]thieno[2,3-b]pyridin-3-amine]
- Emax (%)*: 60%
- pEC50: <5.00
- EC50: > 10000 nM
